Experimental data taken from patent US9499535B2, “Kinase inhibitors” (ORIGENIS GMBH, priority 2011, dated 2016).
pIC50, pKi: −log10 of the molar value.

Assays:
MYLK = MYLK (Homo sapiens, UniProt Q15746); test: MYLK assay (LanthaScreen Eu Kinase Binding Assay); conditions: 5 nM MYLK, 30 nM tracer 236, RT 1 h; read-out: MYLK Activites: IC50
Procedure, shortened: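 TR-FRET tracer-displacement binding: 5 nM MYLK with 2 nM Eu-anti-GST antibody and 30 nM tracer 236 in kinase buffer A, 1 h at RT. The 665/615 nm emission ratio was plotted against inhibitor concentration; IC50 from variable-slope sigmoidal fit.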

LRRK2 = LRRK2 (Homo sapiens, UniProt Q5S007); test: LRRK2 assay (LanthaScreen Eu Kinase Binding Assay); conditions: 5 nM LRRK2, 10 nM tracer 236, RT 1 h; read-out: LRRK2 Activites: IC50
Chain of LRRK2 (Q5S007 970-2527 limits assumed): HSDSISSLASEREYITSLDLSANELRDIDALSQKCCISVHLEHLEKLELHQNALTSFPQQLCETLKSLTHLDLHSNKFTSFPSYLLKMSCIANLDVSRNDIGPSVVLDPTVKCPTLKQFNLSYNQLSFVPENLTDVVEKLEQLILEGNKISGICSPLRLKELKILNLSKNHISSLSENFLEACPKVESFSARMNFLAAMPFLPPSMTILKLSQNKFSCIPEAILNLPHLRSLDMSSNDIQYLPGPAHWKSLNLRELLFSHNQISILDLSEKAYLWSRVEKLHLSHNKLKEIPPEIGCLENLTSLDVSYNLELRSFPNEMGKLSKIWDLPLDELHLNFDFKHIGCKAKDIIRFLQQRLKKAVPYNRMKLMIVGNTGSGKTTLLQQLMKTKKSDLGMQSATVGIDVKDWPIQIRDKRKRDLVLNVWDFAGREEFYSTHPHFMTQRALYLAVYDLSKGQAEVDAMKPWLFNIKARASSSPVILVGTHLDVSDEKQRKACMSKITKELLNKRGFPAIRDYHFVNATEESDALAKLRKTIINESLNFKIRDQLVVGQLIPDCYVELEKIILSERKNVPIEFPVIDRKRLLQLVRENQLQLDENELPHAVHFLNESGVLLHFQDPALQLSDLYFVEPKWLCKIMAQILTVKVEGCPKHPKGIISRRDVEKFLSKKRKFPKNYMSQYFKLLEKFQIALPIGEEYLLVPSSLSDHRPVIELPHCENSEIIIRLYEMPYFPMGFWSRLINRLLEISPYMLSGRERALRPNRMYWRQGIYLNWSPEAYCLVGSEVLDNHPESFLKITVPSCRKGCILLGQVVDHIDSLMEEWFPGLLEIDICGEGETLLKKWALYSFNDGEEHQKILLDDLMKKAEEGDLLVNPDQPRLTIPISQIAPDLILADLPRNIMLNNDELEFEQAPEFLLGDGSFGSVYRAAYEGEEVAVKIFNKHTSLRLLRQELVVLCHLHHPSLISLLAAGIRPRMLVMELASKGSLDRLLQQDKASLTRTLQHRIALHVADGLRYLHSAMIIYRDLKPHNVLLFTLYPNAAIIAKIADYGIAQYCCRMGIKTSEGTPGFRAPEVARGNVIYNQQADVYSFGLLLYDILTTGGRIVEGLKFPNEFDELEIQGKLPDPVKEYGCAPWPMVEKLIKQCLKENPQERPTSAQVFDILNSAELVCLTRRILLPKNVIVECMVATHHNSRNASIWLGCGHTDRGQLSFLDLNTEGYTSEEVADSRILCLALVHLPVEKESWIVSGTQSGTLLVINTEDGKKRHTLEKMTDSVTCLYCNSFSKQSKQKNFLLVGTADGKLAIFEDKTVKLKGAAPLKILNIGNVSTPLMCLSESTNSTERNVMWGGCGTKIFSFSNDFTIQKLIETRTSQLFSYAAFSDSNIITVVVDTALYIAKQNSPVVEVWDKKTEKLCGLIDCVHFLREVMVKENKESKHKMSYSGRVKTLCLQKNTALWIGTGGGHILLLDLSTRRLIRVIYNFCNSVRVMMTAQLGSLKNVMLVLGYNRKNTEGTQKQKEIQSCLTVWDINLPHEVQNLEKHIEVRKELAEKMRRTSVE
Procedure, shortened: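 IC50 was derived from a sigmoidal dose-response fit with variable slope, plotting emission ratio against inhibitor concentration. The read-out is loss of FRET between a europium-labelled anti-tag antibody on the kinase and a tracer displaced by inhibitor.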

SYK kinase = target: T1, SYK kinase (Homo sapiens, UniProt P43405); test: SYK assay (OMNIA Kinase Assay, Invitrogen); type: biochemical; conditions: apparent Ki calculated from the IC50 using the Cheng-Prusoff equation; 1 mM ATP, 10 μM Peptide Substrate; read-out: SYK Activities: Ki
T1 construct: purchased Invitrogen, Carlsbad
Procedure, shortened: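 Reaction velocities were measured from kinetic fluorescence reads (360/485 nm, every 30 s over 30 min) of Mg2+-chelated SOX signal. Conditions were 1 mM ATP, 10 μM Omnia Tyr 7 peptide and 0.2 mM DTT at 30° C. Sigmoidal IC50 fits were converted to apparent Ki using Cheng-Prusoff.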

Chain of MYLK (Q15746 whole entry): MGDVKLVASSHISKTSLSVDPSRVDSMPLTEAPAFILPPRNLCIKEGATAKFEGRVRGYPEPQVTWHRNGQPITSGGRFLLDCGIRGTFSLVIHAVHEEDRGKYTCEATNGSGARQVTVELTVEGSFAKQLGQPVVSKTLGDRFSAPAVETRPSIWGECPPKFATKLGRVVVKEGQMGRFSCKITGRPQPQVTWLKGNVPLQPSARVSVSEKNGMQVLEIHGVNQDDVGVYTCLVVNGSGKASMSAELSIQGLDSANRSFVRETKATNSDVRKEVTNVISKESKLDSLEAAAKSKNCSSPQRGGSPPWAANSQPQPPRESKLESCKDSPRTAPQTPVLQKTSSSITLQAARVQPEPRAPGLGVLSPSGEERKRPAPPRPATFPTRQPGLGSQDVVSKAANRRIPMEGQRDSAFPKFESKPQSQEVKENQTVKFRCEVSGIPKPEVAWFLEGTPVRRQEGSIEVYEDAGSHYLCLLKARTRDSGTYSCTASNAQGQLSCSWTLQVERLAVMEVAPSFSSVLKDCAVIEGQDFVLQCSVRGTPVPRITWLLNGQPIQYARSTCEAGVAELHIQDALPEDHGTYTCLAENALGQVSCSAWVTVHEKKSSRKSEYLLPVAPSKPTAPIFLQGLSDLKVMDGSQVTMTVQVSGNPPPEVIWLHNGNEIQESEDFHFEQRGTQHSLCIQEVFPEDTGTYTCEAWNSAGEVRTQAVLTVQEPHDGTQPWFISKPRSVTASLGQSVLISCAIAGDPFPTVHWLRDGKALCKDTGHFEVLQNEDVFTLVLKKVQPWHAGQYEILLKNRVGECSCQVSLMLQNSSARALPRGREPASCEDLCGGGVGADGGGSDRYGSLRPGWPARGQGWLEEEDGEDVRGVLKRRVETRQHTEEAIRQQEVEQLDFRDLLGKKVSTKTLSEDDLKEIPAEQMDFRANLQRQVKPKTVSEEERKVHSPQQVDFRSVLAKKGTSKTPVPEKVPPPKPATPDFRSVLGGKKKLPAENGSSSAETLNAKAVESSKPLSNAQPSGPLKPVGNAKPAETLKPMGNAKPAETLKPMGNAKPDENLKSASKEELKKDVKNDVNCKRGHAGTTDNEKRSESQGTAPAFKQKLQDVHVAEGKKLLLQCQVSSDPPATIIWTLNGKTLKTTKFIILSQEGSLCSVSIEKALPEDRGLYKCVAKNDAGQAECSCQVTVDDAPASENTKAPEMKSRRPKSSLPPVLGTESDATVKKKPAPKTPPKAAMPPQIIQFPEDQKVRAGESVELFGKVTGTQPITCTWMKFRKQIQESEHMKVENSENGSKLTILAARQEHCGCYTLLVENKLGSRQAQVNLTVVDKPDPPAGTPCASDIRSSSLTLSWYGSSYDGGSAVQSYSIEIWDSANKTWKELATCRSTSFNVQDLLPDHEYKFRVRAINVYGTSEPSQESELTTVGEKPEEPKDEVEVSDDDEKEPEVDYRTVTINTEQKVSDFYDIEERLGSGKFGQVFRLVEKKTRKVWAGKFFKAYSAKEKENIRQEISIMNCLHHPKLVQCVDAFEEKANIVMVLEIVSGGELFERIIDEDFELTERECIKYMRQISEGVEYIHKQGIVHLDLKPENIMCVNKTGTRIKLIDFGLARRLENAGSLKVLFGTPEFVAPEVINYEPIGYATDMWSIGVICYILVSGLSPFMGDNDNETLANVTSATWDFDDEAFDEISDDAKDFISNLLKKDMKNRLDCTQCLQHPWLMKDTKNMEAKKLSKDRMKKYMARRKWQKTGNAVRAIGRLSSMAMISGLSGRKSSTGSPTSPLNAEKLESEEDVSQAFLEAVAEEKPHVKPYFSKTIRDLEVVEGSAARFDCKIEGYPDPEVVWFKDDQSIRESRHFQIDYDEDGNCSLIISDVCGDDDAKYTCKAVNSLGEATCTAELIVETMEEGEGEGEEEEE

Compound | pIC50 (MYLK) | pIC50 (LRRK2) | pKi (SYK kinase)
COc1ccc(Nc2nc3cc(OC)c(OC)cc3c3c[nH]nc23)cc1O [Example #152, 5-(7,8-Dimethoxy-2H-pyrazolo[3,4-c]quinolin-4-ylamino)-2-methoxy-phenol] | > 5.30 | 6.00 to 7.00 | 7.00 to 8.00
COc1ccc2nc(Nc3ccc4c(c3)nc3n4CCN(C)C3)c3n[nH]cc3c2c1 [Example #160, (8-Methoxy-2H-pyrazolo[3,4-c]quinolin-4-yl)-(2-methyl-1,2,3,4-tetrahydro-benzo[4,5]imidazo[1,2-a]pyrazin-8-yl)-amine] | > 5.30 | 6.00 to 7.00 | 7.00 to 8.00
COc1ccc2nc(Nc3ccc(O)c(O)c3)c3n[nH]cc3c2c1 [Example #162, 4-(8-Methoxy-2H-pyrazolo[3,4-c]quinolin-4-ylamino)-benzene-1,2-diol] | > 5.30 | 6.00 to 7.00 | 7.00 to 8.00
COc1ccc2nc(Nc3ccc(OC4CCN(C)CC4)cc3)c3n[nH]cc3c2c1 [Example #163, (8-Methoxy-2H-pyrazolo[3,4-c]quinolin-4-yl)-[4-(1-methyl-piperidin-4-yloxy)-phenyl]-amine] | > 5.30 | 6.00 to 7.00 | 7.00 to 8.00
COc1ccc2nc(Nc3ccc(N4CCN(C(C)=O)CC4)cc3)c3n[nH]cc3c2c1 [Example #164, 1-{4-[4-(8-Methoxy-2H-pyrazolo[3,4-c]quinolin-4-ylamino)-phenyl]-piperazin-1-yl}-ethanone] | > 5.30 | 7.00 to 8.00 | > 8.00
COc1ccc2nc(Nc3ccc(N4CCN(C)CC4)nc3)c3n[nH]cc3c2c1 [Example #165, (8-Methoxy-2H-pyrazolo[3,4-c]quinolin-4-yl)-[6-(4-methyl-piperazin-1-yl)-pyridin-3-yl]-amine] | > 5.30 | 7.00 to 8.00 | 7.00 to 8.00
COc1cccc2c1nc(Nc1ccc(N3CCN(C)CC3)cc1)c1n[nH]cc12 [Example #166, (6-Methoxy-2H-pyrazolo[3,4-c]quinolin-4-yl)-[4-(4-methyl-piperazin-1-yl)-phenyl]-amine] | > 5.30 | 6.00 to 7.00 | 7.00 to 8.00
COc1ccc(Nc2nc3c(OC)cccc3c3c[nH]nc23)cc1OC [Example #167, (3,4-Dimethoxy-phenyl)-(6-methoxy-2H-pyrazolo[3,4-c]quinolin-4-yl)-amine] | > 5.30 | 6.00 to 7.00 | 7.00 to 8.00
COc1cccc2c1nc(Nc1cc(C3CC3)[nH]n1)c1n[nH]cc12 [Example #169, (5-Cyclopropyl-1H-pyrazol-3-yl)-(6-methoxy-2H-pyrazolo[3,4-c]quinolin-4-yl)-amine] | > 5.30 | 7.00 to 8.00 | > 8.00
COc1cccc2c1nc(Nc1ccc3cn[nH]c3c1)c1n[nH]cc12 [Example #171, (1H-Indazol-6-yl)-(6-methoxy-2H-pyrazolo[3,4-c]quinolin-4-yl)-amine] | > 5.30 | 6.00 to 7.00 | 7.00 to 8.00
COc1ccc2c(c1)nc(Nc1ccc3cn[nH]c3c1)c1n[nH]cc12 [Example #172, (1H-Indazol-6-yl)-(7-methoxy-2H-pyrazolo[3,4-c]quinolin-4-yl)-amine] | > 5.30 | 6.00 to 7.00 | 7.00 to 8.00
COc1ccc2nc(Nc3ccc(N4CCN(C5CC5)CC4)cc3)c3n[nH]cc3c2c1 [Example #179, [4-(4-Cyclopropyl-piperazin-1-yl)-phenyl]-(8-methoxy-2H-pyrazolo[3,4-c]quinolin-4-yl)-amine] | > 5.30 | 6.00 to 7.00 | 7.00 to 8.00
COc1ccc2nc(Nc3ccc(N4CCN(C)CC4)c(C)c3)c3n[nH]cc3c2c1 [Example #183, (8-Methoxy-2H-pyrazolo[3,4-c]quinolin-4-yl)-[3-methyl-4-(4-methyl-piperazin-1-yl)-phenyl]-amine] | > 5.30 | 7.00 to 8.00 | 7.00 to 8.00
COc1ccc2nc(Nc3ccc(N4CCNCC4)cc3)c3n[nH]cc3c2c1 [Example #184, (8-Methoxy-2H-pyrazolo[3,4-c]quinolin-4-yl)-(4-piperazin-1-yl-phenyl)-amine] | > 5.30 | 6.00 to 7.00 | > 8.00
COc1ccc2nc(Nc3ccc(CN(C)C)cc3)c3n[nH]cc3c2c1 [Example #185, (4-Dimethylaminomethyl-phenyl)-(8-methoxy-2H-pyrazolo[3,4-c]quinolin-4-yl)-amine] | > 5.30 | 6.00 to 7.00 | 7.00 to 8.00
CCN1CCN(c2ccc(Nc3nc4ccc(OC)cc4c4c[nH]nc34)cc2)CC1 [Example #187, [4-(4-Ethyl-piperazin-1-yl)-phenyl]-(8-methoxy-2H-pyrazolo[3,4-c]quinolin-4-yl)-amine] | > 5.30 | 7.00 to 8.00 | > 8.00
COc1ccc2nc(Nc3ccc4c(c3)NC(=O)CCC4)c3n[nH]cc3c2c1 [Example #188, 8-(8-Methoxy-2H-pyrazolo[3,4-c]quinolin-4-ylamino)-1,3,4,5-tetrahydro-benzo[b]azepin-2-one] | > 5.30 | 7.00 to 8.00 | > 8.00
COc1ccc2nc(Nc3ccc(N(C)C4CCN(C)CC4)cc3)c3n[nH]cc3c2c1 [Example #192, N-(8-Methoxy-2H-pyrazolo[3,4-c]quinolin-4-yl)-N′-methyl-N′-(1-methyl-piperidin-4-yl)-benzene-1,4-diamine] | > 5.30 | 7.00 to 8.00 | 7.00 to 8.00
COc1ccc2nc(Nc3ccc(CCN4CCOCC4)cc3)c3n[nH]cc3c2c1 [Example #193, (8-Methoxy-2H-pyrazolo[3,4-c]quinolin-4-yl)-[4-(2-morpholin-4-yl-ethyl)-phenyl]-amine] | > 5.30 | 6.00 to 7.00 | 7.00 to 8.00

Now from value to molecule:

pIC50 (MYLK) | pIC50 (LRRK2) | pKi (SYK kinase) | Compound
> 5.30 | 6.00 to 7.00 | 7.00 to 8.00 | COc1ccc2nc(Nc3cn[nH]c3)c3[nH]ncc3c2c1 [Example #121, (8-Methoxy-3H-pyrazolo[3,4-c]quinolin-4-yl)-(1H-pyrazol-4-yl)-amine]
> 5.30 | 6.00 to 7.00 | 7.00 to 8.00 | COc1ccc(Nc2nc3cc(OC)c(OC)cc3c3c[nH]nc23)cc1OC [Example #122, (3,4-Dimethoxy-phenyl)-(7,8-dimethoxy-2H-pyrazolo[3,4-c]quinolin-4-yl)-amine]
> 5.30 | 6.00 to 7.00 | 6.00 to 7.00 | COc1ccc2nc(Nc3ccc4c(c3)ncn4C)c3n[nH]cc3c2c1 [Example #126, (8-Methoxy-2H-pyrazolo[3,4-c]quinolin-4-yl)-(1-methyl-1H-benzoimidazol-5-yl)-amine]
> 5.30 | 6.00 to 7.00 | 7.00 to 8.00 | COc1ccc2nc(Nc3ccc(NC(C)=O)cc3)c3n[nH]cc3c2c1 [Example #128, N-[4-(8-Methoxy-2H-pyrazolo[3,4-c]quinolin-4-ylamino)-phenyl]-acetamide]
> 5.30 | 7.00 to 8.00 | 6.00 to 7.00 | COc1ccc2nc(Nc3cccc(S(N)(=O)=O)c3)c3n[nH]cc3c2c1 [Example #131, 3-(8-Methoxy-2H-pyrazolo[3,4-c]quinolin-4-ylamino)-benzenesulfonamide]
> 5.30 | 7.00 to 8.00 | 7.00 to 8.00 | COc1ccc2nc(Nc3ccc(S(N)(=O)=O)cc3)c3n[nH]cc3c2c1 [Example #132, 4-(8-Methoxy-2H-pyrazolo[3,4-c]quinolin-4-ylamino)-benzenesulfonamide]
> 5.30 | 6.00 to 7.00 | 7.00 to 8.00 | COc1cc2nc(Nc3ccc(N4CCOCC4)cc3)c3n[nH]cc3c2cc1OC [Example #133, (7,8-Dimethoxy-2H-pyrazolo[3,4-c]quinolin-4-yl)-(4-morpholin-4-yl-phenyl)-amine]
> 5.30 | 6.00 to 7.00 | 7.00 to 8.00 | COc1cc2nc(Nc3ccc(N4CCN(C)CC4)cc3)c3n[nH]cc3c2cc1OC [Example #134, (7,8-Dimethoxy-2H-pyrazolo[3,4-c]quinolin-4-yl)-[4-(4-methyl-piperazin-1-yl)-phenyl]-amine]
> 5.30 | 6.00 to 7.00 | 7.00 to 8.00 | COc1cc2nc(Nc3ccc4cn[nH]c4c3)c3n[nH]cc3c2cc1OC [Example #136, (7,8-Dimethoxy-2H-pyrazolo[3,4-c]quinolin-4-yl)-(1H-indazol-6-yl)-amine]
> 5.30 | 6.00 to 7.00 | 7.00 to 8.00 | COc1ccc2nc(Nc3ccc(OC)c(NC(C)=O)c3)c3n[nH]cc3c2c1 [Example #142, N-[2-Methoxy-5-(8-methoxy-2H-pyrazolo[3,4-c]quinolin-4-ylamino)-phenyl]-acetamide]
> 5.30 | 7.00 to 8.00 | 7.00 to 8.00 | COc1ccc2nc(Nc3ccc4c(c3)COC4)c3n[nH]cc3c2c1 [Example #147, (1,3-Dihydro-isobenzofuran-5-yl)-(8-methoxy-2H-pyrazolo[3,4-c]quinolin-4-yl)-amine]
> 5.30 | 6.00 to 7.00 | 6.00 to 7.00 | COc1ccc2nc(Nc3ccc4ncn(C)c4c3)c3n[nH]cc3c2c1 [Example #148, (8-Methoxy-2H-pyrazolo[3,4-c]quinolin-4-yl)-(3-methyl-3H-benzoimidazol-5-yl)-amine]
> 5.30 | 7.00 to 8.00 | 7.00 to 8.00 | COc1cc2nc(Nc3cc(C4CC4)[nH]n3)c3n[nH]cc3c2cc1OC [Example #150, (5-Cyclopropyl-1H-pyrazol-3-yl)-(7,8-dimethoxy-2H-pyrazolo[3,4-c]quinolin-4-yl)-amine]
